Laboratory results taken from patent US12590096B2, “Imidazo[2,1-f][1,2,4]triazin-4-amine as TLR8 agonists” (BeOne Medicines | GmbH, priority 2019, dated 2026).
Read-outs that look alike come from different tables or passages of the source.

Tests used:
[1] = system: PBMC (peripheral blood monocyte); assay: PBMC determination: cytokines in culture supernatant measured by HTRF; format: cell-based; conditions: human PBMC, 24 h
Method: Determination of PBMC (Peripheral Blood Monocyte) Cell Preparation, Separation and Culture
Human whole blood was collected from healthy volunteers using BD Vacutainer® Lithium Heparin Tubes. PBMCs were prepared using Ficoll separation medium (GE Healthcare) by SopMate™ (STEMCELL). The cell survival rate was over 85% as monitored by Countstar. PBMCs were cultured in RPMI 1640 (Gibco) 10% (v/v) FBS (Gibco), 1×MEM NEAA (Gibco), 1× GlutaMAX (Gibco), 1 mM sodium pyruvate (Gibco), 50 uM 2-mercaptoethanol (sigma), and 100 U/ml penicillin-streptomycin (Thermo fisher Scientific).
PBMCs were plated into 96-well plates (costar 3894) with a density of 2×10^5 cells/well. Then, TLR7/8 compound was added, and serial dilution was carried out at ten points. The final concentration in 0.1% DMSO/RPMI 1640 ranged from 1 nM to 10 μM. Then, the plates were incubated in 5% CO2 at 37° C. for 24 h.
HTRF (Homogeneous Time-Resolved Fluorescence)
After the specified time point, according to the manufacturers recommendations, the cytokines in the cell culture supernatant were measured by Human IL6 kit (cisbio) and Human TNF alpha kit (cisbio). The EC50 of each compound was determined by calculating the maximum activation percentage identified using Resiquimod or Motolimod.

[2] = target: T1, human TLR 8 protein in HEK-blue hTLR 8 tool cell line (Homo sapiens, UniProt Q9NR97); assay: TLR8 stimulation determined by HEK-Blue Detection (NF-κB/SEAP reporter); format: cell-based; conditions: HEK-Blue hTLR8 cells, 16 h incubation, relative to maximum activation by Resiquimod or motolimod; read-out: EC50 (nmol)
T1 construct: expressed in transfected cells; host or cells: HEK293 (HEK-Blue hTLR8)
T1 sequence (Q9NR97 27-1041): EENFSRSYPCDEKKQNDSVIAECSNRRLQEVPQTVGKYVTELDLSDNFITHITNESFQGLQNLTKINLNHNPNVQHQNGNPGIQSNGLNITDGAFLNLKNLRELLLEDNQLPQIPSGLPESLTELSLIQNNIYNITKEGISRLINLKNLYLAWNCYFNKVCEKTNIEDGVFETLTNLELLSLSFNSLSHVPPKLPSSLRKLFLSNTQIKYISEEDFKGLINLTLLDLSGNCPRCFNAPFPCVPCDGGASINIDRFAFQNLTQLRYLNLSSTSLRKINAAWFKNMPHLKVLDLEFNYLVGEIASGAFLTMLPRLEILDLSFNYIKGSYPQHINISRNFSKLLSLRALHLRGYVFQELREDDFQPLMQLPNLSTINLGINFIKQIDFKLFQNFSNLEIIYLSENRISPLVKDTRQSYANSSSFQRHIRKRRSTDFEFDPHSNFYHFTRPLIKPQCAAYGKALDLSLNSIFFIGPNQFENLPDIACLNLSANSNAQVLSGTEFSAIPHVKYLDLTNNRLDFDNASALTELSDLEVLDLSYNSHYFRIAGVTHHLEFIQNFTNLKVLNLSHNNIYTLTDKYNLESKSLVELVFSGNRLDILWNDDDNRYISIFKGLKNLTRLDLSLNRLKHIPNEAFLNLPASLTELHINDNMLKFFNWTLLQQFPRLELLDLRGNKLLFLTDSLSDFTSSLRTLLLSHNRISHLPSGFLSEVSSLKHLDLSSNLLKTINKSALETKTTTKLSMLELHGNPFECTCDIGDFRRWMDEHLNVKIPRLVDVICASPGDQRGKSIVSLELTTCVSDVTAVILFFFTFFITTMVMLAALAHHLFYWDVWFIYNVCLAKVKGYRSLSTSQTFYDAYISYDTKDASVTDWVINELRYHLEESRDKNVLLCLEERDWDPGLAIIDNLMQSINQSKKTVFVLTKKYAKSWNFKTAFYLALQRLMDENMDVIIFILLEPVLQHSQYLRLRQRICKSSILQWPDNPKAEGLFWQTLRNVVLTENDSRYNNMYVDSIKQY
Source text: TLR8 Stimulation Determined by HEK-Blue Detection
This assay was designed to study the stimulation of human TLR 8 protein in HEK-blue hTLR 8 tool cell line by monitoring the activation of NF-κB. HEK-blue hTLR8 cells were obtained by co-transfection of hTLR8 gene and optimized secretory embryonic alkaline phosphatase (SEAP) reporter gene into HEK293 cells. SEAP reporter gene was put under the control of […] minimal promoter fused with five NF-κB and AP-1-binding sites. NF-κB and AP-1 were activated by stimulation with TLR 8 ligand, thus inducing the expression of SEAP. The level of SEAP can be easily determined by HEK-Blue Detection (a cell culture medium that allows real-time detection of SEAP). HEK-Blue Detection comprises all nutrients needed for cell growth and specific SEAP color substrates. The hydrolysis of substrate by SEAP produces purple/blue color which can be measured by spectrophotometer.
When growing to 50-80% confluence, HEK-Blue hTLR7/8 cells were plated into 96-well plates (costar 3599) at a density of 40,000 cells/well. Then, the compound serially diluted at 10 points with a final concentration ranging from 1 nM to 10 μm in 0.1% DMSO/HEK-Blue Detection was added. The plates were then incubated in 5% CO2 at 37° C. for 16 h. Optical density at 620-655 nm was read on BMG PHERAstar FSX instrument. The EC50 of each compound was determined by calculating the maximum activation percentage identified using Resiquimod or motolimod.
The EC50 of the tested compound of the present invention is as follows.

[3] = Human IL6 kit (HTRF), read-out: IL6 (EC50)
[4] = Human TNF alpha kit (HTRF), read-out: TNF-alpha (EC50)

Work on `CCC[C@H](C)Oc1nc(N)c2ncc(CC3CCNC(C)C3)n2n1` (stereo partly drawn) [Compound B27, 7-((2-methylpiperidin-4-yl)methyl)-2-(((S)-pent-2-yl)oxy)imidazo[2,1-f][1,2,4]triazin-4-amine] yielded an EC50 [1, 3] of 228 nM, an EC50 [1, 4] of 326 nM and an EC50 [2] of 20 nM.

Work on `CCC[C@@H](C)Oc1nc(N)c2ncc(CC3CCNCC3)n2n1` [Compound B7, (R)-2-(pent-2-yloxy)-7-(piperidin-4-ylmethyl)imidazo[2,1-f][1,2,4]triazin-4-amine] yielded an EC50 [1, 3] greater than 10000 nM, an EC50 [1, 4] greater than 10000 nM and an EC50 [2] of 1290 nM.

Compound `CCC[C@H](C)Oc1nc(N)c2ncc(CC3CCNCC3)n2n1` [Compound B6, (S)-2-(pent-2-yloxy)-7-(piperidin-4-ylmethyl)imidazo[2,1-f][1,2,4]triazin-4-amine] has an EC50 [1, 3] of 162 nM, an EC50 [1, 4] of 115 nM and an EC50 [2] of 8.2 nM.

For `CCCC(CO)Oc1nc(N)c2ncc(CC3CCNCC3)n2n1` (stereo not shown) [Compound B34, 2-((4-amino-7-(piperidin-4-ylmethyl)imidazo[2,1-f][1,2,4]triazin-2-yl)oxy) pentan-1-ol], the EC50 [2] was 225 nM.

Work on `CCC[C@H](C)Oc1nc(N)c2ncc(CC3CCN(CC(C)NC)CC3)n2n1` (single isomer, unassigned) [Compound B58, 7-((1-((R or S)-2-(methylamino)propyl)piperidin-4-yl)methyl)-2-(((S)-pent-2-yl)oxy)imidazo[2,1-f][1,2,4]triazin-4-amine] yielded an EC50 [2] of 24 nM.

`Cc1cc(COc2nc(N)c3ncc(CC4CCNCC4)n3n2)no1` [Compound B41, 2-((5-methylisoxazol-3-yl)methoxy)-7-(piperidin-4-ylmethyl)imidazo[2,1-f][1,2,4]triazin-4-amine] was tested, and the EC50 [2] was greater than 10000 nM.

`CCC[C@H](C)Oc1nc(N)c2ncc(CC3CC4CCC(C3)N4)n2n1` (stereo partly drawn) [Compound B56, 7-((8-azabicyclo[3.2.1]oct-3-yl)methyl)-2-(((S)-pent-2-yl)oxy)imidazo[2,1-f][1,2,4]triazin-4-amine] gave an EC50 [2] of 1920 nM.

In the case of `CCC[C@H](C)Oc1nc(N)c2ncc(CC3CC4(CCNCC4)C3)n2n1` [Compound B50, (S)-7-((7-azaspiro[3.5]non-2-yl)methyl)-2-(pent-2-yloxy)imidazo[2,1-f][1,2,4]triazin-4-amine], the EC50 [2] is reported as 209 nM.

`CCC[C@H](C)Oc1nc(N)c2ncc(CC3CCN(CC(C)NC)CC3)n2n1` (single isomer, unassigned) [Compound B59, 7-((1-((S or R)-2-(methylamino)propyl)piperidin-4-yl)methyl)-2-(((S)-pent-2-yl)oxy)imidazo[2,1-f][1,2,4]triazin-4-amine] showed an EC50 [2] of 21 nM.

In the case of `CCCC(CCO)Oc1nc(N)c2ncc(CC3CCNCC3)n2n1` (stereo not shown) [Compound B28, 3-((4-amino-7-(piperidin-4-ylmethyl)imidazo[2,1-f][1,2,4]triazin-2-yl)oxy)hexan-1-ol], the EC50 [2] is reported as 308 nM.

`CCCC(C)Oc1nc(N)c2ncc(CN3CCC(NC)CC3)n2n1` (stereo not shown) [Compound B21, 7-((4-(methylamino)piperidin-1-yl)methyl)-2-(pent-2-yloxy)imidazo[2,1-f][1,2,4]triazin-4-amine] gave an EC50 [2] greater than 10000 nM.

In the case of `CCC[C@H](C)Oc1nc(N)c2ncc(CC3CCN(CC4CCCN4)CC3)n2n1` (stereo partly drawn) [Compound B20, 2—(((S)-pent-2-yl)oxy)-7-((1-(pyrrolidin-2-ylmethyl)piperidin-4-yl)methyl)imidazo[2,1-f][1,2,4]triazin-4-amine], the EC50 [2] is reported as 558 nM.

`CCC[C@H](C)Oc1nc(N)c2ncc(C=C3CCNCC3)n2n1` [Compound B35, (S)-2-(pent-2-yloxy)-7-(piperidin-4-ylidenemethyl)imidazo[2,1-f][1,2,4]triazin-4-amine] was tested, and the EC50 [2] was 921 nM.

`CCCC(Cc1ccccc1)Oc1nc(N)c2ncc(CC3CCNCC3)n2n1` (stereo not shown) [Compound B45, 2-((1-phenylpent-2-yl)oxy)-7-(piperidin-4-ylmethyl)imidazo[2,1-f][1,2,4]triazin-4-amine] gave an EC50 [2] of 531 nM.

Work on `CCCC(C)Oc1nc(N)c2ncc(CN3CCNCC3)n2n1` (stereo not shown) [Compound B9, 2-(pent-2-yloxy)-7-(piperazin-1-ylmethyl)imidazo[2,1-f][1,2,4]triazin-4-amine] yielded an EC50 [2] of 529 nM.

Compound `CCCC(C)Oc1nc(N)c2ncc(CC3(C)CCNCC3)n2n1` (stereo not shown) [Compound B8, 7-((4-methylpiperidin-4-yl)methyl)-2-(pent-2-yloxy)imidazo[2,1-f][1,2,4]triazin-4-amine] has an EC50 [2] of 515 nM.

`Cc1cnc(COc2nc(N)c3ncc(CC4CCNCC4)n3n2)s1` [Compound B44, 2-((5-methylthiazol-2-yl)methoxy)-7-(piperidin-4-ylmethyl)imidazo[2,1-f][1,2,4]triazin-4-amine] gave an EC50 [2] greater than 10000 nM.

In the case of `CCC(CC)Oc1nc(N)c2ncc(CC3CCNCC3)n2n1` [Compound B48, 2-(pent-3-yloxy)-7-(piperidin-4-ylmethyl)imidazo[2,1-f][1,2,4]triazin-4-amine], the EC50 [2] is reported as 14.7 nM.

`CCCC(C)Oc1nc(N)c2ncc(CN3CCN[C@@H](C)C3)n2n1` (stereo partly drawn) [Compound B16, 7—(((S)-3-methylpiperazin-1-yl)methyl)-2-(pent-2-yloxy)imidazo[2,1-f][1,2,4]triazin-4-amine] showed an EC50 [2] of 8490 nM.

Work on `CCCCNc1nc(N)c2ncc(CC3CCNCC3)n2n1` [Compound B4, N2-butyl-7-(piperidin-4-ylmethyl)imidazo[2,1-f][1,2,4]triazin-2,4-diamine] yielded an EC50 [2] of 347 nM.

For `CCC[C@H](C)Oc1nc(N)c2ncc(CC3CCC4(CC3)CNC4)n2n1` [Compound B43, (S)-7-((2-azaspiro[3.5]non-7-yl)methyl)-2-(pent-2-yloxy)imidazo[2,1-f][1,2,4]triazin-4-amine], the EC50 [2] was 24 nM.

`CCC[C@H](CC)Oc1nc(N)c2ncc(CC3CCNCC3)n2n1` [Compound B49, (S)-2-(hex-3-yloxy)-7-(piperidin-4-ylmethyl)imidazo[2,1-f][1,2,4]triazin-4-amine] was tested, and the EC50 [2] was 7.5 nM.

With `CCC[C@H](C)Oc1nc(N)c2ncc(CC3CCCNC3)n2n1` (stereo partly drawn) [Compound B10, 2—(((S)-pent-2-yl)oxy)-7-(piperidin-3-ylmethyl)imidazo[2,1-f][1,2,4]triazin-4-amine] the EC50 [2] was 172 nM.

`CCCC(C)Oc1nc(N)c2ncc(CC3CCNCC3)n2n1` (stereo not shown) [Compound B2, 2-(pent-2-yloxy)-7-(piperidin-4-ylmethyl)imidazo[2,1-f][1,2,4]triazin-4-amine] showed an EC50 [2] of 15 nM.

`CCC[C@H](C)Oc1nc(N)c2ncc(CC3CNC3)n2n1` [Compound B39, (S)-7-(azetidin-3-ylmethyl)-2-(pent-2-yloxy)imidazo[2,1-f][1,2,4]triazin-4-amine] showed an EC50 [2] of 127 nM.
